Results taken from US11351179B1, “Pharmaceutical compositions and methods for treatment of psychiatric disorders” (LA PharmaTech Inc., priority 2021, dated 2022).

What was measured:
MDD and panic disorder = experiment: Clinical case: patient with MDD and panic disorder treated orally once daily; type: in vivo, human; details: each drug given for 2 months before the composition
Excerpt: A patient had MDD and panic disorder. […] Because azelastine is approved for the treatment of allergic rhinitis and asthma, and the combination composition of azelastine and folic acid had never been expected to be used to treat patients with depression or anxiety, this dramatic clinical outcome which included a fast reduction of symptoms was unexpected. […] This composition with two mechanisms of action of anti-inflammation would provide a new solution for treating psychiatric diseases which are incurable by other options, such traditional SSRIs, NSRIs, benzodiazepines, and the like alone.

[1] = system: mild chronic depression and anxiety induced sleep disorder; experiment: Clinical case: patient with mild chronic depression and anxiety induced sleep disorder treated once daily; type: in vivo, human; details: citalopram and lorazepam together for 3 months before the composition
Procedure: A patient was diagnosed with mild chronic depression and anxiety induced sleep disorder and was treated with citalopram and lorazepam for 3 months. […] Then they were treated with a composition of folic acid (0.19 mg) and azelastine (2 mg) once daily. […] The inventors believe the hypothesis as explained in Example 1 above is applicable here as well. In this case, the composition of two mechanisms of action provided a new solution for treating their chronic depression and insomnia which could not be treated with other options, such traditional SSRIs, NSRIs, benzodiazepines, and the like alone.

SMILES | clinical improvement on prior treatment (MDD and panic disorder) | improvement of symptoms on prior treatment [1]
O=C1CC2(CCCC2)CC(=O)N1CCCCN1CCN(c2ncccn2)CC1 [buspirone] | no significant clinical improvement | 
O=C1Nc2ccc(Cl)cc2C(c2ccccc2Cl)=NC1O (stereo not drawn) [lorazepam] |  | never improved to the level of their satisfaction
CN[C@H]1CC[C@@H](c2ccc(Cl)c(Cl)c2)c2ccccc21 [sertraline] | no significant clinical improvement | 
